Experimental data published in patent publication US20170066712A1, “NOVEL MOLECULES THAT SELECTIVELY INHIBIT HISTONE DEACETYLASE 6 RELATIVE TO HISTONE DEACETYLASE” (The Trustees of Columbia University in the City of New York, priority 2011, published 2017).

Experiments:
[1] = test system: LNCaP cells; experiment: Cell growth assay in LNCaP cells; type: cell-based, human; conditions: FIG. 3
Method: FIG. 3. Cell growth assay data in LNCaP cells with compound 6.
(§1) Recombinant HDAC1 and HDAC6 are used to evaluate the selective inhibitory potency of each compound. Cell based assays: Normal cells (Human Foreskin Fibroblast cells), LNCaP (human prostate cancer cells), MCF-7 (human breast cancer cells, A549 (human adenocarcinoma of lung cells) and ARP-1 (human multiple myeloma cells) are used in these assays. Cells were cultured for up to 72 hr without and with the potential HDAC6-selective inhibitor. SAHA was used as a control. Cell number and cell viability were determined by enumeration. Proteins were extracted from cells and assayed for accumulation of acetylated tubulin and acetylated histones. All methods are described in Namdar et al., PNAS, 2010, 107:20003-8. In vivo animal studies: Potential HDAC6 inhibitor compounds are further assayed by administration to mice for up to 5 days with daily injections. Animals are sacrificed and tissues are analyzed for accumulation of acetylated tubulin and acetylated histones.

[2] = test system: acetylated alpha-tubulin; experiment: Accumulation of acetylated alpha-tubulin in LNCaP cells (blot); type: cell-based, human; conditions: for identified as HDAC6-selective inhibitor: on the basis of accumulation of acetylated tubulin without accumulation of acetylated histones
From the text: (§2) FIG. 2. Blot showing accumulation of acetylated alpha-tubulin and acetylated histone H3 in LNCaP cells cultured with compound 6. GADPH used as loading control.
as §1

[3] = test system: acetylated histone H3; experiment: Accumulation of acetylated histone H3 in LNCaP cells (blot); type: cell-based, human; conditions: FIG. 2
From the text: as §2, §1

[4] = test system: LNCaP cells; experiment: Cell viability assay in LNCaP cells; type: cell-based
Method: FIG. 4. Cell viability assay data in LNCaP cells with compound 6.
as §1

[5] = molecular target: T1, HDAC6 (Homo sapiens, UniProt Q9UBN7); experiment: Recombinant HDAC1 and HDAC6 selective inhibitory potency; type: biochemical
T1 sequence (Q9UBN7 1-1215): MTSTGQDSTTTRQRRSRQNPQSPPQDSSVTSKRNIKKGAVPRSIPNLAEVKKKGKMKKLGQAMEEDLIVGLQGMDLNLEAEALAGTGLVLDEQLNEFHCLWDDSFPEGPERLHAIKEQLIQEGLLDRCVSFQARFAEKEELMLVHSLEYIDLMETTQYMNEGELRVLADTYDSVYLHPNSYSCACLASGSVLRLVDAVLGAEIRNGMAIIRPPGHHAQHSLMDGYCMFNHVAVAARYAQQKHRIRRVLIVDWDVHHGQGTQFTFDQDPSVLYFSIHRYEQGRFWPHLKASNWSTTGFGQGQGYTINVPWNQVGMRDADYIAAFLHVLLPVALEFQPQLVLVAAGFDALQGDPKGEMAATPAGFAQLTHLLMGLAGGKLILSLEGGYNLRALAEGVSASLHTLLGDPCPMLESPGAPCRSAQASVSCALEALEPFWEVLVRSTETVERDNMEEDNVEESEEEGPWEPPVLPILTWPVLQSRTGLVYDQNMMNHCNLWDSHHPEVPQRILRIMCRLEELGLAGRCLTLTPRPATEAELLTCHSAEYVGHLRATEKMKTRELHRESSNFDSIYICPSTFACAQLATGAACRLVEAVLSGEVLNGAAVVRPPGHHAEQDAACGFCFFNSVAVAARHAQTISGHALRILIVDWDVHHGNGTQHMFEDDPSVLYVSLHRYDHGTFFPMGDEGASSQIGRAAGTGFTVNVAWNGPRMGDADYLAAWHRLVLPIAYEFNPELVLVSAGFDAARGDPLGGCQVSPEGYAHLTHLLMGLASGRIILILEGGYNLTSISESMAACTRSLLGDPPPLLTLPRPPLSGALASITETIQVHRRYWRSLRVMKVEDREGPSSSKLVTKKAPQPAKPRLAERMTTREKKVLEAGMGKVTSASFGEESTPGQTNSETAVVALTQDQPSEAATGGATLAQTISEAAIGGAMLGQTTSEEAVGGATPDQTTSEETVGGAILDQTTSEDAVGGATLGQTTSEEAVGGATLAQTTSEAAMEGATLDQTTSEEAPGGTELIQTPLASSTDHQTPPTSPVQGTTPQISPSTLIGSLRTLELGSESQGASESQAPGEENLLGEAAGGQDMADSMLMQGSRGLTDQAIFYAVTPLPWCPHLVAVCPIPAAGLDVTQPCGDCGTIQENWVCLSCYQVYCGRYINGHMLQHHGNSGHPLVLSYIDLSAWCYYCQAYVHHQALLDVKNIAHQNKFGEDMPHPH
Method: as §1

[6] = test system: known human HDACs; conditions: background statement; cited from earlier work
[7] = test system: microtubules; conditions: Haggarty et al. (6); cited from earlier work
[8] = molecular target: T2, C-terminal catalytic domain of HDAC6 (Homo sapiens, UniProt Q9UBN7); conditions: Haggarty et al. (6); cited from earlier work
T2 sequence (Q9UBN7 1-1215): T1 sequence (Q9UBN7 1-1215)

[9] = test system: cell motility; conditions: Haggarty et al. (6); cited from earlier work

Structure (SMILES)	HDAC inhibitor selectivity for HDAC6 relative to HDAC1 [5]	other results
O=C(NO)c1ccc(CC(=O)N(CCO)c2cccc3cccnc23)cc1 [Compound 14, N-hydroxy-4-(2-((2-hydroxyethyl)(quinolin-8-yl)amino)-2-oxoethyl) benzamide]	selective for HDAC6 relative to HDAC1	identified as HDAC6-selective inhibitor [2]: HDAC6-selective inhibitors
O=C(/C=C/C(=O)Nc1ccc(CC(=O)N(CCO)c2ccccc2)cc1)NO [Compound 21]	selective for HDAC6 relative to HDAC1	
O=C(NO)C(=O)Nc1ccc(CC(=O)N(CCO)c2ccccc2)cc1 [Compound 26]	selective for HDAC6 relative to HDAC1	
O=C(NO)c1ccc(NCC(=O)N(CCO)c2ccccc2)cc1 [Compound 27]	selective for HDAC6 relative to HDAC1	
O=C(CN(CCO)c1ccccc1)Nc1ccc(C(=O)NO)cc1 [Compound 30]	selective for HDAC6 relative to HDAC1	
O=C(CC(=O)Nc1ccc(CC(=O)N(CCO)c2ccccc2)cc1)NO [Compound 31]	selective for HDAC6 relative to HDAC1	
O=C(CN(CCO)c1ccccc1)Oc1ccc(C(=O)NO)cc1 [Compound 32]	selective for HDAC6 relative to HDAC1	
O=C(NO)c1cccc2c1ccn2CC(=O)N(CCO)c1ccccc1 [Compound 37]	selective for HDAC6 relative to HDAC1	
O=C(NO)c1cccc2c1ncn2CC(=O)N(CCO)c1ccccc1 [Compound 43]	selective for HDAC6 relative to HDAC1	
O=C(NO)c1cccc(CC(=O)N(CCO)c2ccccc2)c1 [Compound 79, N-hydroxy-3-(2-((2-hydroxyethyl)(phenyl)amino)-2-oxoethyl) benzamide]	selective for HDAC6 relative to HDAC1	
O=C(CCCCCCC(=O)Nc1ccccc1)NO [SAHA, suberoylanilide hydroxamic acid, reference compound]		selectivity of inhibitory activity among known human HDACs [6]: not selective among the known human HDACs; death of LNCaP cells ([4]; SAHA control): kills LNCaP cells
O=C(CCCCCCC(=O)Nc1ccc([C@H]2O[C@@H](CSc3nc(-c4ccccc4)c(-c4ccccc4)o3)C[C@@H](c3ccc(CO)cc3)O2)cc1)NO [tubacin]		stability of microtubules [7]: did not affect the stability of microtubules; inhibition of C-terminal catalytic domain of HDAC6 (α-tubulin deacetylation) [8]: can be inhibited; cell motility [9]: decreased cell motility

More lines, main results first:

HDAC inhibitor selectivity for HDAC6 relative to HDAC1 [5]	Structure (SMILES)	other results
selective for HDAC6 relative to HDAC1	O=C(NO)c1ccc(CC(=O)N(CCO)c2ccccc2)cc1 [Compound 6, N-hydroxy-4-(2-((2-hydroxyethyl)(phenyl)amino)-2-oxoethyl) benzamide]	cell number [1]: inhibits cell number; levels of tubulin acetylation ([2]; LNCaP cells, FIG. 2): significant levels of tubulin acylation were present; levels of tubulin acetylation reached in the absence of histone acetylation, compared with tubacin ([2]; in the absence of histone acetylation): greater than selective levels with tubacin; identified as HDAC6-selective inhibitor [2]: HDAC6-selective inhibitors; induction of H3 acetylation [3]: without induction of H3 acetylation; cell viability ([4]; FIG. 4): does not decrease cell viability; death of LNCaP cells ([4]; concentrations as high as 32 μM): no detectable death of LNCaP cells
selective for HDAC6 relative to HDAC1	O=C(NO)Nc1ccc(CC(=O)N(CCO)c2ccccc2)cc1 [Compound 24]	
selective for HDAC6 relative to HDAC1	O=C(NO)c1ccc(C(=O)N(CCO)c2ccccc2)cc1 [Compound 33]	
selective for HDAC6 relative to HDAC1	O=C(Cc1ccc(C(=O)N(CCO)c2ccccc2)cc1)NO [Compound 34]	
selective for HDAC6 relative to HDAC1	O=C(CCc1ccc(C(=O)N(CCO)c2ccccc2)cc1)NO [Compound 35]	
selective for HDAC6 relative to HDAC1	O=C(CCc1ccc(CC(=O)N(CCO)c2ccccc2)cc1)NO [Compound 36]	
